According to patent publication US5441983A, “Treatment of infection by enveloped virus with calix(N)arene compounds” (Genelabs Incorporated, priority 1992, dated 1995):
≈ marks a conversion by molar mass, not a printed value.

What was measured:
[1] = tested on: HSV-1; assay: Plaque reduction assay, HSV-1, Vero cells; format: cell-based, HSV-1 (Kos-1); conditions: Human alphaherpesvirus 1, Vero, plaque reduction, Vero cells
[2] = tested on: adenovirus; assay: Inhibition of adenovirus cytopathic effect in Vero cells; format: cell-based, adenoviruses 5 and 7; conditions: 1-100 μg, 24 h
Description: (§1) The ability of KY compounds to inhibit cell infection by a rhinovirus and adenoviruses 5 and 7 which are non-enveloped viruses, was similarly studied. Vero cells (10^5) were infected with a rhinovirus in the presence of KY-1, at concentrations ranging between 1-100 μg. Twenty-four hours after virus infection, the cells were examined for cytopathic effect, evidencing viral infection.
Vero cells were infected with adenovirus in the presence of KY-1, also at concentrations ranging between 1-100 μg, and twenty-four hours after virus infection, the cells were examined for cytopathic effect.

[3] = tested on: RSV; assay: Inhibition of RSV cytopathic effect in HEp2 cells; format: cell-based; conditions: human respiratory syncytial virus, HEp-2, read-out: ED50 RSV
[4] = tested on: HSV-2 333; assay: Inhibition of viral yield, wild type HSV-2 333; conditions: Human alphaherpesvirus 2, HeLa, read-out: ID90
Description: (§2) These compounds tested were the nucleoside analogs acyclovir (ACV), ganciclovir (DHPG), phosphonoformate (PFA), and phosphomethoxyethyladenine (PMEA). Inhibition of viral yield was determined, as above, by infecting Hela cells in the presence of wild type or drug-resistant strains of HSV-1 or HSV-2, and serial dilutions of a selected anti-viral compound, and infecting Vero cells with serial dilutions of the Hela cell lysate, as above.
(§3) The KOS (HSV-1) and 333 (HSV-2) are wild type viruses; the KOS(PMEA)' and KOS(PFA)' are drug-resistant HSV-1 strains having a DNA polymerase mutation. The 333(DHPG) strain is a drug-resistantHSV-2 strain having a thymidine kinase mutation.
(§4) The following strains of HSV-1 and HSV-2 virus were used: KOS, a wild type HSV-1 virus; KOS (PMEA) and KOS (PFA), both drug-resistant HSV-1 viruses having a DNA polymerase mutation; 333, a wild type HSV-2 HSV-2 virus, and 333 (DHPG), a drug-resistant HSV-2 virus having a thymidine kinase mutation.
(§5) After growth at 37° C. for 24 hours in 2 ml of RPMI-1640 containing 2% FCS and penicillin and streptomycin (P/S), the cells were frozen at -70° C. until the time for titration. The cells were freeze/thawed 3 times to release virus from the cells, serially diluted 10 fold, and the serial dilutions were added to Vero cells in culture. After 2 hours incubation at 37° C. the virus was removed and 0.5 ml methycellulose (4K cps) in RPMI-1640 and 2% FCS+P/S was added. Two days later, the medium was removed. The cells were stained in 0.8% crystal violet in 50% ethanol. The plaques formed were counted and the titer was calculated from the fold of dilutions. From the drug dose response, the concentration of each drug required to effect a 90% inhibition of virus yield, the IC90 concentration was determined.

[5] = tested on: HSV-1 binding to Vero cells; assay: Inhibition of binding of radiolabeled HSV-1 to Vero cells; format: cell-based; conditions: 10 μg/ml KY-1, FIG. 30
Description: In one study, the ability of a macrocyclic compound to block HSV binding to infectable cells was examined as described in Example 14. Briefly, Vero cells were exposed to radiolabeled HSV-1 or HSV-2 in the absence of KY compound or in the presence of 10 μg/ml KY-1, and binding of the virus at times up to 4 hours after exposure to the virus was measured. […] In the absence of drug, the amount of bound virus increased steadily over two hours, and slightly from 2-4 hours. By contrast, virus binding to cells peaked at about 1/2 hour in the presence of drug, presumably reflecting the time during which the binding events effective to block virus binding to the cells are equilibrating.
At time intervals of 5, 30, 60, 120, and 240 minutes, cells were removed from the suspension, washed two times with PBS, and assayed for bound virus (cpm ^3 H). The results are given in FIG. 30, where the control virus binding is indicated by solid circles, and the drug-inhibited binding, by open rectangles.

[6] = tested on: HSV-1 and HSV-2; assay: Viral yield inhibition, HeLa cells, plaque count on Vero cells; conditions: up to 10 μg/ml, FIGS. 29A and 29B, depending on drug and virus
Description: The ability of selected naphthalene-subunit compounds to inhibit HSV-1 and HSV-2 viral yields at selected drug concentrations up to 10 μg/ml was assessed in the viral inhibition assay described in Example 7. Briefly, cultured Hela cells were exposed to serially diluted KY compound and virus, allowed to grow for 24 hours, then freeze/thawed 3 times to release virus particles. Vero cells were infected serial dilutions of the viral lysates were assayed for plaque counts as described in Example 6.
1×10^6 HeLa S3 were plated in 25 T flasks in 5 ml RPMI-1640+5% FCS+P/S. 24 hours later, the medium was aspirated and replaced with 6×10^6 PFU HSV-1 or HSV-2, and serial dilutions of selected KY compounds, at 10, 5, 2.5, 1.25, and 0.625 μg/ml drug. After growth at 37° C. for 24 hours in 2 ml of RPMI-1640 containing 2% FCS and P/S, the cells were frozen at -70° C. until the time for titration. The cells were freeze/thawed 3 times to release virus from the cells, and serially diluted 10 fold.
1×10^5 Vero cells were plated in each well of 24 well multi-dish in 1 ml RPMI-1640+5% FCS+P/S+0.1% methylcellulose (15 cps). On the second day, after removal of the medium, the 10 fold serially diluted virus in 100 μl was added in duplicate. […] The plaques formed were counted and the titer was calculated from the fold of dilutions.

[7] = tested on: HSV-1 KOS; assay: Inhibition of viral yield, wild type HSV-1 KOS; conditions: Human alphaherpesvirus 1, HeLa, read-out: ID90
[8] = tested on: rhinovirus; assay: Inhibition of rhinovirus cytopathic effect in Vero cells; format: cell-based; conditions: 1-100 μg, 24 h
Description: as §1

[9] = tested on: HSV-1; assay: Inactivation of purified HSV-1 by compound, plaque number after serial dilution; conditions: for Plaque number, dilution 10^2 / Plaque number, dilution 10^3 / Plaque number, dilution 10^4 / Plaque number, dilution 10^5 / Plaque number, dilution 1 / Plaque number, dilution 10^1: 10 μg/ml, duplicate
Description: In a third study, purified HSV-1 virus suspensions were incubated with KY-1 or the sodium salt thereof, or a control solution for 1 hour, then serially diluted to drug concentrations between 10^1 to 10^-4 μg/ml as described in Example 16. The "X" symbol in the table indicates plaques too numerous to count.
Purified HSV-1 was suspended in RPMI-1640 medium (Gibco Laboratories) containing 2% FCS, penicillin and streptomycin. […] The suspensions were incubated for 1 hour at 37° C., then diluted serially at 10 fold dilutions to final drug concentrations of 10, 10^0, 10^-1, 10^-2, 10^-3 and 10^-4 μg/ml drug concentrations The serially diluted particles were then added to Vero cells for two hours, as in Example 6, and the cells examined for plaques 48 hours later.

[10] = tested on: HSV-1 KOS (PFA)'; assay: Inhibition of viral yield, drug-resistant HSV-1 KOS(PFA)'; conditions: Human alphaherpesvirus 1, HeLa, read-out: ID90
Description: as §2, §3, §4, §5

[11] = tested on: HIV-HXB; assay: Inhibition of syncytia formation, HIV-HXB (HTLV-IIIB); conditions: Human immunodeficiency virus 1, 18 h, read-out: HIV-HXB ED100, complete inhibition of syncytia formation
Description: Briefly, cells chronically infected with HTLV-IIIB or RF-II HIV strains were incubated in the presence of serial dilutions of the selected KY compound, then further cocultured with indicator cells. The extent of syncytia formation was scored under phase microscopy.
Representative calix(n)arene compounds from Table 2 were tested for inhibition of cytopathic effects in cells infected with one of two HTLV-III strains, HTLV-IIIB and RF-II strains, as described in Example 12, and in the subsection above.
Human CD4^+ indicator cells (VB) and chronically infected H9 cells were maintained in RPMI-1640 medium supplemented with 5% fetal calf serum, 100 Units of penicillin per ml and 100 μg of streptomycin per ml at 37° C. in a humidified incubator containing 7% CO2.
For the fusion assay, serial dilutions between 1:2 and 1:2^8 of a selected KY compound, 1 mg/ml in PBS were made in a 96 well round bottom plate. The diluted KY compound was transferred to a 96 well flat-bottom plate. To each well was added 25 μg chronically infected H9 cells (at 2×10^6, cells/ml), or cells chronically infected with RF-II strain HIV, followed by incubation at 37° C. for 45 minutes. To each well was then added 25 μl VB cells (about 5×10^4 cells), and the cells and virus isolates were cocultured for 18 hours in a humid 5% CO2 atmosphere.

[12] = tested on: HSV-2; assay: Topical treatment of genital HSV-2 infection, guinea pigs, first study
Description: Briefly, female guinea pigs were infected intravaginally with HSV-2, then treated topically three times daily beginning 6 hours or 48 hours after inoculation with HSV-2, as described in Example 13. […] Swabs of vaginal secretion were obtained and assayed for viral activity by a standard CPE assay. The severity of genital lesions was scored on a 0-5+ scale through the period of primary infection (21 days).
The MS strain of HSV-2 was utilized for the experimental animal infection. Female Hartley strain guinea pigs (Charles River Breeding Laboratories, Kingston, NY) weighing 250-300 g were inoculated intravaginally with 2.0×10^5 plaque-forming units of HSV-2 one hour after being swabbed for removal of vaginal secretions.
In the first study, groups of 10 guinea pigs were treated topically (0.1 ml intravaginally +0.1 ml on external genital skin) three times daily (approximately every eight hours) for seven days beginning 6 h or 48 h after inoculation with HSV-2.
To determine the effect of treatment on vaginal viral replication, swabs of vaginal secretions were obtained on days 1, 3, 5, 7 and 10 after HSV inoculation, placed in a tube containing 2.0 ml of media, vortexed and frozen at -70° C. until titrated for HSV-2. When all samples were collected, they were thawed, diluted serially and HSV-2 titers determined using rabbit kidney cells in a microtiter CPE assay.
To determine the effect of therapy on the development and spread of external genital lesions, lesion severity was scored on a 0-5+ scale through the primary infection period (19-21 days). Lesion score-day areas and virus titer-day areas under the curve, and peak lesion scores and peak virus titers between untreated and placebo-treated or placebo-treated and drug-treated animals were compared using the Mann-Whitney U range sum test. A p-value of 0.05 or less was considered significant.

[13] = tested on: HSV-2 333 (DHPG)'; assay: Inhibition of viral yield, drug-resistant HSV-2 333(DHPG)'; conditions: Human alphaherpesvirus 2, HeLa, read-out: ID90
[14] = tested on: HSV glycoproteins gD, gB, and gC; assay: Identification of KY-1 binding proteins; set-up: species or system HSV-1; conditions: FIG. 32B
Description: In a fourth study, the binding of radiolabeled KY-1 compound to HSV-1 and HSV-2 viral proteins was examined. After compound binding, virus proteins were fractionated by sodium dodecyl sulfate polyacrylamide gel electrophoresis (SDS-PAGE), and the gel patterns developed by autoradiography. In FIG. 32A, lanes A and B in the figure are autoradiographs of HSV-1 proteins in the presence ([…]) and absence (lane B) of mercaptoethanol, and lanes C and D, analogous patterns for HSV-2 proteins. The lane at the right contains the molecular weight markers, as indicated. The major bands of drug binding in HSV-1 have molecular weights, as determined from SDS-PAGE, of 45, 66, and about 130 kilodaltons.
HSV-1 and HSV-2 virus suspensions were solubilized with SDS and fractionated on SDS-PAGE as above. Each sample was run in triplicate, corresponding to groups D, B, and C in FIG. 32B. The two gels in each group were analyzed by Western blotting as follows: The gels in groups D, B, and C were first reacted with mouse monoclonal antibody specific against HSV glycoprotein gD, gB, and dC, respectively. The antibodies were obtained from Dr. S. Chatterjee from the University of Alabama. The gels were then incubated with alkaline phosphatase-labeled goat antimouse antibody, to label the glycoprotein in each group. […]

O=S(=O)(O)c1cc2cc(S(=O)(=O)O)c3c(O)c2c(O)c1Cc1c(S(=O)(=O)O)cc2cc(S(=O)(=O)O)c(c(O)c2c1O)Cc1c(S(=O)(=O)O)cc2cc(S(=O)(=O)O)c(c(O)c2c1O)Cc1c(S(=O)(=O)O)cc2cc(S(=O)(=O)O)c(c(O)c2c1O)C3 [KY-1]
IC50 [1]: 2.7 µg/mL (≈ 2.03 µM) | reduction in cell clumping, adenovirus [2]: No reduction in cell clumping | EC50 [3]: 0.19 µg/mL (≈ 0.143 µM) | IC90 [4]: 3.2 µg/mL (≈ 2.41 µM) | time at which virus binding to cells peaked [5]: about 1/2 | dose dependent drop in viral yield [6]: 3-5 orders of magnitude | IC90 [7]: 1.9 µg/mL (≈ 1.43 µM) | reduction in cell clumping, rhinovirus [8]: No reduction in cell clumping | Plaque number, dilution 10^2 ([9]; 0.3 pfu/cell): 0,0 | Plaque number, dilution 10^3 ([9]; 0.3 pfu/cell): 0,0 | Plaque number, dilution 10^4 ([9]; 0.3 pfu/cell): 0,0 | Plaque number, dilution 10^5 ([9]; 0.3 pfu/cell): 0,0 | Plaque number, dilution 1 ([9]; 0.3 pfu/cell, listed as KY 1): 3,2 | Plaque number, dilution 10^1 ([9]; 0.3 pfu/cell, listed as KY 1): 0,0 | Plaque number, dilution 10^4 ([9]; 3 pfu/cell): 0,0 | Plaque number, dilution 10^5 ([9]; 3 pfu/cell): 0,0 | Plaque number, dilution 1 ([9]; 3 pfu/cell, listed as KY 1): 2,2 | Plaque number, dilution 10^1 ([9]; 3 pfu/cell, listed as KY 1): 2,1 | Plaque number, dilution 10^2 ([9]; 3 pfu/cell, listed as KY 1): 17,16 | Plaque number, dilution 10^3 ([9]; 3 pfu/cell, listed as KY 1): 5,2 | final drug concentration with complete virus inhibition ([9]; after dilution of treated virus): 10^-2 to 10^-4 μg/ml | IC90 [10]: 4.3 µg/mL (≈ 3.23 µM) | EC100 [11]: 8 µg/mL | Lesion score Area Under Curve ([12]; 1%, +6 h): 30.8 | Mean Peak lesion score ([12]; 1%, +6 h): 2.9 | AUC, in words ([12]; 1%, +6h, P<0.01): significantly reduced the AUC | Lesion score Area Under Curve ([12]; 1%, +48 h): 46.6 | Mean Peak lesion score ([12]; 1%, +48 h): 4.3 | lesion development (AUC and mean peak lesion scores) versus placebo ([12]; 5%, 6h after infection, P <0.001): significantly reduced | Lesion score Area Under Curve ([12]; 5%, +6 h): 3.8 | Mean Peak lesion score ([12]; 5%, +6 h): 0.8 | Lesion score Area Under Curve ([12]; 5%, +48 h): 45.7 | Mean Peak lesion score ([12]; 5%, +48 h): 3.7 | IC90 [13]: 3.7 µg/mL (≈ 2.78 µM) | proteins bound (major bands) [14]: correspond in molecular weight, to HSV glycoproteins gD, gB, and gC
